Data set [1] has as its target T1, DUSP5 PD(WT) (Homo sapiens, UniProt Q16690).
T1 construct: hexa-histidine (N); made in house; host or cells: E. coli BL21(DE3)
T1 sequence (Q16690 178-319 limits assumed): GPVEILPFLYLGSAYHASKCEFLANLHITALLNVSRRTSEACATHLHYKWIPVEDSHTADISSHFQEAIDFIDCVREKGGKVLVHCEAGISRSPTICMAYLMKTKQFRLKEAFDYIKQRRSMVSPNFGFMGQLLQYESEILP
The data set can be described thus: p-nitrophenol phosphate (pNPP) phosphatase activity / IC50 assay. It is filed as biochemical. The following applies: for effect of detergent on inhibition: presence vs absence of 0.5 % Triton X-100. From the text: To measure enzymatic activity of the DUSP5 PD and the inhibitory capacity of selected molecules, an in vitro phosphatase assay was developed based on previous studies. In this assay, DUSP5 PD will dephosphorylate the substrate p-nitrophenol phosphate (pNPP, Sigma Aldrich), yielding p-nitrophenolate, which absorbs at 405 nm with an extinction coefficient of 18,000 M^−1 cm^−1.
Thus, an increase in absorbance at 405 nm corresponds to the turnover of pNPP to p-nitrophenolate. The assay was initially optimized in 1 mL quartz cuvettes, then was subsequently optimized for and validated in a 96-well plate format. All IC50 values were obtained using the 96-well plate assay format (see below). The assay buffer contained 100 mM Tris, 100 mM sodium chloride, 5 mM magnesium chloride, and 1 mM DTT at pH 7.5. The pNPP substrate was prepared as a 50 mM stock by dissolving the solid substrate in assay buffer. The DUSP5 PD and pNPP were assayed initially in a cuvette (1 mL total volume) and initial velocities were fitted to the Michaelis-Menten equation:1 v=VmaxS/Km+S where v is the initial velocity, Vmax is the maximum velocity, Km is the Michaelis constant, and [S] is the concentration of pNPP. Data were fitted using a nonlinear least squares fit to eq. 1, with GraphPad Prism 6 software.
For the 96-well plate validation assay, sodium orthovanadate (Sigma Aldrich) was utilized as a positive control for inhibition at a final concentration of 10 μM, to completely block DUSP5(WT) enzymatic activity. All plate assays were performed in standard 96-well clear bottom plates (Thermo Scientific Nunc) with a total assay volume of 200 μL, using a SpectraMax M5 Microplate Reader (Molecular Devices). The plate validation assay was performed with replicate columns of positive control wells, negative control wells and blank wells. Blank columns contained only buffer and pNPP. Negative control (uninhibited) contained buffer, pNPP, and DUSP5 PD(WT); and, positive control contained the same components, but also contained 10 μM sodium orthovanadate. The plate was then shaken and allowed to equilibrate in the spectrophotometer at 25 °C for 30 min. After incubation, 4 μL of a 50 μM enzyme stock was dispensed into appropriate wells utilizing a single-channel pipette. This produced a final enzyme concentration of 1 μM. Before a read was taken, the plate was shaken for five seconds. […] The endpoint reading was subsequently taken at 90 min after initiation of reaction.
IC50 values were obtained using the assay described above, in 96 well plates. The maximum inhibitor concentration screened in any plate was […] and the minimum screened concentration was 1 μM. The IC50 plate was designed so that the first column of wells served as blanks, with wells containing only buffer and substrate. The second column of wells functioned as the plate negative control, with each well containing buffer, substrate and enzyme. The remaining wells in the plate contained buffer, substrate, enzyme, and varying amounts of inhibitor, with inhibitor concentration increasing from left to right across the plate. Data points were collected at a minimum in triplicate, and inhibitor concentrations were chosen to provide data equally spread on a logarithmic scale. The composition of buffer and the concentrations of substrate and enzyme utilized were identical to those in the plate validation assay. After initiation and shaking, a ten-minute kinetic read was taken.
For each plate assayed, the slope values for all negative control wells were averaged and the measured value considered representative of full enzymatic activity.

A further data set deals with T2, full length DUSP5 (Homo sapiens, UniProt Q16690).
T2 construct: in the more biologically relevant assay with full length DUSP5 and using pERK2 as substrate; made in house
T2 sequence (Q16690 1-384): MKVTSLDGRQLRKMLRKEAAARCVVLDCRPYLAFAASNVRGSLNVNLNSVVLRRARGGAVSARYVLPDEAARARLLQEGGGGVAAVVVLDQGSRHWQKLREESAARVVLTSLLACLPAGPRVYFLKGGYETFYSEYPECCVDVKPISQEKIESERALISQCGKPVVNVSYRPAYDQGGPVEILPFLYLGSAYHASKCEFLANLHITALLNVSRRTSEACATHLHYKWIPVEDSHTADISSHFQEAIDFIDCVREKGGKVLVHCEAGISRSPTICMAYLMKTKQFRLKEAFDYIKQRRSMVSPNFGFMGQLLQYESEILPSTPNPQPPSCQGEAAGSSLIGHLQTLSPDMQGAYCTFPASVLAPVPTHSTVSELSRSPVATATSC
Nature of the data set: ERK dephosphorylation assay (full-length DUSP5, pERK2 substrate, Western blot). It is filed as biochemical. The following applies: full length DUSP5, pERK2 as substrate. The procedure: For this assay, 10 ng of GST-tagged recombinant phosphorylated ERK2 (R&D Systems, 1230-KS) was incubated with and without the indicated DUSP5 proteins (0.5 nM final concentration) for 15 min at room temperature, with or without the indicated drugs. The reactions were halted with 2x Laemmli sample buffer and subjected to SDS-PAGE. The proteins were transferred to polyvinylidene difluoride (PVDF) and immunoblotted using antibodies to pERK (Cell Signaling Tech., #9106) and total ERK, which includes both phosphorylated and unphosphorylated ERK1 and ERK2 (Cell Signaling Tech., #9102). Bound antibodies were visualized using horseradish peroxidase-linked anti-mouse IgG (Cell Signaling Tech, #7076S) and anti-rabbit IgG (Cell Signaling Tech, #7074S), respectively, and ECL reagents (Pierce, #34708) according to the manufacturer’s protocol. For calculating IC50 values, gel bands were imaged by chemiluminescence with either film or digital image capture by a FluorChem HD2 imager (Alpha Innotech). Density of each band was quantified with ImageJ software by using the gel analysis tool. Relative values of phosphorylated ERK present for each drug concentration treatment compared to pERK only controls were calculated. These relative values were then used to obtain IC50 values with GraphPad Prism 6 software. […]

Data set [2] can be described thus: Nephelometry (aggregation in solution). The data set is classed as physicochemical. The following applies: 10-100 μM, pH 7.5 buffer; for aggregation: nephelometry. How it is done:
Nephelometry is a technique for measuring the relative aggregation of particles in solution, based on the light-scattering properties of molecular aggregates. We performed nephelometry to explore the ability of the chemicals studied herein to form aggregates, which can lead to artifactual inhibition effects. Compounds were tested for aggregation in 96-well plates using a buffer containing 100 mM Tris base, 100 mM sodium chloride, and 5 mM magnesium chloride at pH 7.5. Each compound analyzed in these experiments contained concentrations of compound ranging from 10-100 μM, recorded in quadruplet. Each plate was analyzed at two separate gain values of 52 and 72. Data were collected using a BMG NEPHELOstar Plus, equipped with a 635 nm laser.

The subject of the next data set is T3, DUSP5 PD(C263S).
T3 construct: a C-terminal phosphatase domain (PD); hexa-histidine (N); made in house; host or cells: E. coli BL21(DE3)
The data set can be described thus: NMR binding assay (2D 1H-15N HSQC). Further details: species or system human. The following applies: 250 μM RR505 or 500 μM CSD^3_2320, pH 6.8. How it is done:
NMR samples of DUSP5 PD(C263S) were prepared for 2D ^1H-^15N HSQC (heteronuclear single quantum coherence) spectral titration studies. The ^15 N-labeled DUSP5 PD(C263S) protein was concentrated using an Amicon Ultra-4 centrifugal device (Millipore) to 600 μM. NMR samples were prepared with the following conditions for RR505: 250 μM RR505, 250 μM DUSP5 PD(C263S), 10 % D2O, 50 mM potassium phosphate, 100 mM KCl, and 2 mM DTT at pH 6.8 and for CSD^3-2320: 0 or 500 μM CSD^3-2320, 500 μM DUSP5 PD(C263S), 10 % D2O, 50 mM potassium phosphate, 100 mM KCl, and 2 mM DTT at pH 6.8. NMR experiments were performed on a 500 MHz Varian NMR System using a triple resonance probe with z-axis gradients at 25 °C.

Another data set relates to panel of 21 phosphatases. The data set can be described thus: Screen against a panel of 21 phosphatases. The data set is classed as biochemical. The following applies: at up to 30 μM.
The target in data set [3] is T1, DUSP5 PD(WT). The data set can be described thus: p-nitrophenol phosphate (pNPP) phosphatase activity / IC50 assay. It is filed as biochemical. The following applies: 1 mL cuvettes, pNPP substrate.
The mark [4] stands for this setting: pNPP as substrate, Michaelis-Menten fit, 1 mL cuvette.

“And” between values parts separate entries of the source, which are not always exact repeats. Equal values may be shown once. “Also recorded” adds a separate entry of the source. Read-outs that look alike come from different tables or passages of the source.

As to `O=S(=O)(O)c1cc(O)c2c(S(=O)(=O)O)cccc2c1` [CSD^3_2320], the IC50 (in general, the midpoint of a concentration-inhibition curve) is 32700 µM and 33000 µM on DUSP5 PD(WT) [1] (phosphatase domain alone, pNPP as substrate, read-out: IC50); 33 µM on full length DUSP5 (read-out: IC50 (mean)); 8 to 96 µM on full length DUSP5 (read-out: IC50 (range)). The values for the aggregation entry in data set [2] and in data set [2] (listed as CSD3_2320) were “does not aggregate; also recorded: no propensity to aggregate; also recorded: no tendency to aggregate” and “no tendency”, respectively. Further, the “binding by HSQC cross-peak shifts” value with DUSP5 PD(C263S) is listed as “direct binding”; in the data set with DUSP5 PD(C263S) (listed as CSD3_2320), “binding”. Besides, the “inhibition of panel phosphatases” value in the data set on panel of 21 phosphatases is given as “not inhibit any of them significantly”.

As to `O=S(=O)(O)c1ccc2c(S(=O)(=O)O)cc(S(=O)(=O)O)cc2c1` [NTS, Naphthalene trisulfonate], the “effect of detergent on inhibition” value at DUSP5 PD(WT) [1] is “no detergent-effect”. For the same compound, the aggregation result in data set [2] is recorded as “do not appear to form aggregates”.

For `O=S(=O)([O-])c1cc(S(=O)(=O)[O-])c2[nH]c3c(S(=O)(=O)[O-])cc(S(=O)(=O)[O-])cc3c2c1.[Na+].[Na+].[Na+].[Na+]` [RR506, Carbazole-1,3,6,8-tetrasulfonic acid, tetrasodium salt], on DUSP5 PD(WT) [1] (pNPP substrate, 96-well plate, Triton X-100 at 0.1 %, read-out: IC50 from enzyme assay), the IC50 stood at 16000 ± 2000 µM. In addition, in data set [2], the aggregation entry is recorded as “do not appear to form aggregates”.

Regarding `Cc1ccc(C(=O)Nc2ccc(S(=O)(=O)O)c3cc(S(=O)(=O)O)cc(S(=O)(=O)O)c23)cc1NC(=O)c1cccc(NC(=O)Nc2cccc(C(=O)Nc3cc(C(=O)Nc4ccc(S(=O)(=O)O)c5cc(S(=O)(=O)O)cc(S(=O)(=O)O)c45)ccc3C)c2)c1` [Suramin], the inhibition (commonly the percentage by which the read-out fell short of the control) at 1 µM on DUSP5 PD(WT) [1] (1 μM suramin, 5 mM pNPP, read-out: plateau level of inhibition with increasing Triton X-100) was found to be 30%. At DUSP5 PD(WT) [1] (competitive versus pNPP, absence of Triton X-100), the Ki (in general, a measure of affinity in units of concentration, obtained from inhibition or displacement) is 24.6 µM and 25 µM. Besides, on DUSP5 PD(WT) [1], the “effect of detergent on inhibition” value is “loss and loss of some inhibitory capability”. In addition, at DUSP5 PD(WT) [1] (listed as suramin), the “effect of detergent on inhibition” value was “detergent decreases suramin inhibition”. Moreover, the mode of inhibition entry on DUSP5 PD(WT) [1] (varied pNPP and inhibitor) is recorded as “competitive inhibitor; also recorded: competitive inhibition”. Also, in data set [2], the “concentration at which aggregates start forming” value is given as “around 25 μM” and the aggregation result is recorded as “forms aggregates in vitro”.

Turning to `O=[N+]([O-])c1ccc(OP(=O)(O)O)cc1` [pNPP, p-nitrophenol phosphate], on DUSP5 PD(WT) [1] (setting [4]), the Km (usually the substrate concentration at which the rate is half of its maximum) worked out at 7.6 ± 0.4 mM and the Vmax is reported as 1.35 ± 0.02 × 10^−3 μmol/min.

Consider `[Na+].[Na+].[Na+].[O]=[V]([O-])([O-])[O-]` [sodium orthovanadate], for which the midpoint of inhibition against DUSP5 PD(WT) [3], the IC50, lay at 0.088 ± 0.008 µM.
